The record followed here is EPA's ToxValDB 9.5 (doi:10.2903/j.efsa.2010.1876).

Values after ≈ are worked out from the molar mass of the structure shown. Values joined by “and” are separate entries in the source; they are usually repeats but may differ in a detail not shown here. Equal entries are not always repeated.

The test system of one data set is Anas platyrhynchos. The conditions noted are these: reproductive.
Another data set concerns Apis mellifera. The conditions noted are these: acute; duration: 48 hours; oral; unspecified; mortality.
The test system of the next data set is Colinus virginianus. The conditions noted are these: acute; oral; diet; mortality.
A further data set deals with Coturnix japonica. The conditions noted are these: acute; oral; mortality.
Another data set concerns Daphnia magna. The conditions noted are these: chronic/long-term; duration: 22 days; reproduction.
The test system of a further data set is Lepomis macrochirus. The conditions noted are these: acute; duration: 96 hours; mortality.
For a further data set, the system named is Mus musculus. The conditions noted are these: acute; oral; mortality.
A further data set concerns Oncorhynchus mykiss. The conditions noted are these: chronic/long-term; duration: 28 days; growth.
Another data set has as its system Typhlodromus pyri. Briefly: LR50; higher = less toxic. Particulars: not reported; mortality.

In the case of `CC(C)(C)[C@H](O)[C@H](Cc1ccc(Cl)cc1)n1cncn1` (racemic) [Paclobutrazol], the NOEC in the data set on Anas platyrhynchos was 119 mg/kg-day; in the data set on Daphnia magna, 0.32 mg/L; in the data set with Oncorhynchus mykiss it was 3.3 mg/L; in the data set on Tagia sp. (chronic/long-term, duration: 56 days), 1.69 mg/kg. Also, the LD50 in the data set on Apis mellifera is > 2 µg/piece; with Coturnix japonica, > 2100 mg/kg; in the data set with Mus musculus, 490 mg/kg. Further, the LC50 in the data set on Colinus virginianus was > 2790 mg/kg-day; in the data set with Lepomis macrochirus it was 23.6 µg/mL (≈ 80.3 µM); in the data set on Tagia sp. (acute, mortality) it was > 1000 mg/kg. For the same compound, the NOAEL in the data set on Rattus norvegicus (chronic, duration: 2 years, clinical chemistry) amounted to 2.2 mg/kg-day; with Rattus norvegicus (developmental, development), 10 mg/kg-day. Besides, in the data set on Typhlodromus pyri, the LR50 is > 1000 g/ha.
Regarding `NC(Cc1ncn[nH]1)C(=O)O` (stereo not given) [1,2,4-Triazole-3-alanine], the NOAEL with Rattus norvegicus (developmental, development) came out at 100 mg/kg-day.
As for `c1nc[nH]n1` [1H-1,2,4-Triazole], the NOAEL with Rattus norvegicus (reproduction developmental) was 17 mg/kg-day and 30 mg/kg-day.
